Test system: Tyrosinase (Agaricus bisporus)
Test: Inhibitory activity at a concentration of 0.5 nm, was evaluated against the oxidation of L-3,4-dihydroxyphenylalanine (L-DOPA) catalyzed by mushroom tyrosinase; No inhibitory activity

COc1cc(C(C)C)ccc1C=O
IC50: No inhibition
